In US9034398B2, “Traditional Chinese drug comprising Danshen extracts and Sanqi extracts and use thereof” (TASLY Pharmaceutical Group Co., LTD., priority 2009, dated 2015):

Tested on: rat myocardial I/R model
Assay: Diameters of the venules of heart coronary vessels after myocardial I/R
Type: in vivo
Conditions: 5 mg/kg BW/h intravenous drip; entire observation; FIG. 1
Description: The rats were anesthetized by intramuscularly injecting 20 wt % urethane (1.25 g/kg) and fixed in the supine position. Neck skin was incised and anterior cervical muscles were separated to expose the trachea. Tracheal intubation was performed. Another end of the intubation was attached to a Small Animal Ventilator (ALC-V8, Shanghai Aoteshai Biology Science and Technology Limited Company, Shanghai, China) so as to carry out pressure breathing under the following conditions: a respiratory ratio of 1:1, a respiratory frequency of 75 times/min and a tidal volume of 12 mL/kg. The rectal temperature, measured with YSI REF 401 (Yellow Spring, Ohio, USA), was maintained at 37 37.5° C. by using a thermal blanket. […] Heart coronary vessel microcirculation had been recorded by a CD video recorder ([…], US). […] The diameter of the venules and RBC velocity under a same visual field were recorded before ischemia, 30 min after ischemia, 30 min after reperfusion and 60 min after reperfusion. Recordings were replayed at 25 frames·s^-1, diameters of the arterioles and the venules as well as RBC velocities were measured with Image-Pro Plus 5.0 software. RBC velocities in the rat's heart arterioles and venules were expressed as “mm/s”, and the diameters of the rat's heart arterioles and venules were expressed as “μm”.

## CC(C)=CCC[C@](C)(O[C@@H]1O[C@H](CO)[C@@H](O)[C@H](O)[C@H]1O)[C@H]1CC[C@]2(C)[C@@H]1[C@H](O)C[C@@H]1[C@@]3(C)CC[C@H](O)C(C)(C)[C@@H]3[C@@H](O[C@@H]3O[C@H](CO)[C@@H](O)[C@H](O)[C@H]3O[C@@H]3OC[C@@H](O)[C@H](O)[C@H]3O)C[C@]12C [Notoginsenoside R1]
  change in the diameters of the venules of the heart coronary vessels: no significant change

## O=C(O)C(O)Cc1ccc(O)c(O)c1 (centres unmarked) [Danshensu, (3,4-dihydroxyphenyl)lactic acid]
  change in the diameters of the venules of the heart coronary vessels: no significant change
